Test results from patent publication US5610174A, “Use of α1A -selective adrenoceptor agonists for the treatment of urinary incontinence” (priority 1995, dated 1997).
Each block holds one compound with its values, some of them ahead of it.

Columns and labels:
[1] = target: T1, rabbit urethra, female (α1-adrenoceptor) (Oryctolagus cuniculus, UniProt O02824); test: Contractile study in isolated female rabbit urethra; settings: versus phenylephrine-induced contraction; read-out: pKB Rabbit Urethra Female (converted)
T1 construct: proximal urethra of male humans and male and female rabbits; from tissue; host or cells: rabbit proximal urethra strips, male or female
T1 sequence (O02824 1-466): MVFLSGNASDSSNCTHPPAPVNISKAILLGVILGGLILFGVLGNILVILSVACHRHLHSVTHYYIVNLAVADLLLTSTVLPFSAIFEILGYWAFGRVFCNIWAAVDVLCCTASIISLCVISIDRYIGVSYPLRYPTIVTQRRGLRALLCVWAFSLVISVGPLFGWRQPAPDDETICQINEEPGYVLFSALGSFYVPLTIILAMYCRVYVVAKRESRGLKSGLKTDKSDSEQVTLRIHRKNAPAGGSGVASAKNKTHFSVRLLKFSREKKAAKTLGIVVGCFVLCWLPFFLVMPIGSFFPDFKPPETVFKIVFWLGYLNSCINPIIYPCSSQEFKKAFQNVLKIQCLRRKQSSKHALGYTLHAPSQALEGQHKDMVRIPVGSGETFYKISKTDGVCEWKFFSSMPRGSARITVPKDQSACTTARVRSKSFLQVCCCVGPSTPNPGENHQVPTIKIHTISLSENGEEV
From the text: (§1) In addition, similar studies were done using bladder neck tissue from female dogs. In order to identify the specific receptor subtype in each tissue, the pharmacological profile was compared to the profiles for these same drugs at the cloned human α1A, α1B, or α1C subtypes.
(§2) Tissue samples from the proximal urethra of male humans and male and female rabbits, as well as tissue samples from both the proximal urethra and bladder neck of male and female dogs were cut into transverse strips (3×10 mm) and suspended under 0.5 g tension in Krebs' physiological buffer at 37° C. To determine agonist potency (pEC50 )and antagonist affinity constants (pKB), concentration-effect curves to the non-selective agonist phenylepherine were constructed in the absence and in the presence of increasing concentrations of the antagonist. Up to four sequential curves were constructed in each tissue. Antagonists were allowed to equilibrate for 1h before each concentration-effect curve, and the drugs were completely washed out in between successive curves. In each experiment, one tissue served as a "time control", in which no antagonist was added so that changes in tissue sensitivity could be assessed as a function of time. […] In instances in which a single concentration of antagonist was used, pKB values were determined by the equation: […], where CR is defined as the ratio of the agonist EC50 in the presence of the antagonist to that in the absence of the antagonist.

[2] = target: T2, rabbit urethra, male (α1-adrenoceptor) (Oryctolagus cuniculus, UniProt O02824); test: Contractile study in isolated male rabbit urethra; settings: versus phenylephrine-induced contraction
T2 sequence (O02824 1-466): T1 sequence (O02824 1-466)
From the text: as §1, §2

[3] = target: T3, human 5-HT2 receptor (Homo sapiens, UniProt P28223); test: Radioligand binding at human 5-HT2; settings: [3H]ketanserin; read-out: pKi 5-HT2 (converted)
T3 construct: expressed in transfected cells; host or cells: COS-7 cells (text also names deposited cell line L-NGC-5-HT2, ATCC CRL 10287)
T3 sequence (P28223 whole entry): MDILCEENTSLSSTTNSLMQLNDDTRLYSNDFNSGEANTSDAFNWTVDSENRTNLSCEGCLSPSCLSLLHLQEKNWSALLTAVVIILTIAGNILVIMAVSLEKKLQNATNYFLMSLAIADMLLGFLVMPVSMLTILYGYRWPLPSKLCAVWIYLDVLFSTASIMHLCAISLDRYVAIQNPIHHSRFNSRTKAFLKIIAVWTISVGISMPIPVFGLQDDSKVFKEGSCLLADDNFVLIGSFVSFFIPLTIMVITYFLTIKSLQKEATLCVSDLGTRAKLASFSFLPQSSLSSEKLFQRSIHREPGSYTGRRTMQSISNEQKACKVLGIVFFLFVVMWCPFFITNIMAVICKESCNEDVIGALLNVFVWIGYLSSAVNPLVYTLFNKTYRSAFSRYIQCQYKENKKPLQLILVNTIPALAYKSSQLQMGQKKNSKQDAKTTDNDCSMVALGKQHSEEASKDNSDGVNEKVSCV
Procedure: The coding sequence of the human 5-HT2 receptor was obtained from a human brain cortex cDNA library, and cloned into the cloning site of pCEXV-3 eukaryotic expression vector. This construct was transfected into COS-7 cells by the DEAE-dextran method. Cells were harvested after 72 hours and lysed by sonication in 5 mM Tris-HCl, 5 mM EDTA, pH 7.5. This cell line was deposited with the ATCC on Oct. […] The cell lysates were centrifuged at 1000 rpm for 5 minutes at 4° C., and the supernatant was centrifuged at 30,000×g for 20 minutes at 4° C. The pellet was suspended in 50 mM Tris-HCl buffer (pH 7.7 at room temperature) containing 10 mM MgSO4, 0.5 mM EDTA, and 0.1% ascorbate. […] Nonspecific binding was defined by the addition of 10 μM mianserin. The bound radioligand was separated by filtration through GF/B filters using a cell harvester.

[4] = tested on: α2-adrenoceptors; test: Activity at human α2-adrenoceptors (overall statement); format: cell-based; settings: result in words
Procedure: α2 -Adrenoceptor-Mediated Inhibition of Forskolin Stimulated Adenylyl Cyclase
The agonist activity of test compounds was assayed by measuring their ability to inhibit adenylyl cyclase in cells stably transfected with each of the three cloned human α2 -adrenoceptors. LM(tk-) cells expressing the α2A - or the α2C -, as well as Y1 cells expressing the α2B -adrenoceptor were used. […] The formation of cyclic AMP was measured in cultures incubated with DMEM containing 1 mM theophylline. Twelve concentrations of the test compounds (from 10 pM to 100 μM) were added to the incubation medium and incubated at 37° C. for 20 min. Following this incubation step, 10 μM forskolin was added to stimulate the formation of cyclic AMP, and the cultures were incubated for another 10 min. The reaction was stopped by replacing the incubation medium with 100 mM HCl . The intracellular levels of cyclic AMP were measured by radioimmunoassay. The data from concentration-response curves was fitted to a four-parameter logistic equation, by non-linear regression analysis, to determine the pEC50 and intrinsic activity.

[5] = target: T4, female dog urethra (α1-adrenoceptor) (Canis lupus, UniProt A0A8I3NK63); test: Contractile study in isolated female dog urethra; settings: for pEC50 Urethra: agonist contraction
T4 sequence (A0A8I3NK63 1-466): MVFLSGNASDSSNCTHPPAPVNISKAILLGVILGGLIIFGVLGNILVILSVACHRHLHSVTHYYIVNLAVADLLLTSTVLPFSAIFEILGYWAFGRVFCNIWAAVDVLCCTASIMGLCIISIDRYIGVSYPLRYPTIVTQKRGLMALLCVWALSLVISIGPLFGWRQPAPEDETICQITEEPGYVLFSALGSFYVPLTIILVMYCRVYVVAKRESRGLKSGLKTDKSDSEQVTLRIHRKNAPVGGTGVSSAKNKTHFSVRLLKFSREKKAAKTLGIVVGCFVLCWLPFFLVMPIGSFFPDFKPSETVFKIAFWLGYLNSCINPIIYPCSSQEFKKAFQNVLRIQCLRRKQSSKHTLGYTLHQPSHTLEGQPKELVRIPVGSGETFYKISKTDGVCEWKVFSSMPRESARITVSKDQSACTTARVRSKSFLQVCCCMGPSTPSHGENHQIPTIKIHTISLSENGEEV
From the text: as §1, §2

Structure (SMILES): COc1cc2c(cc1OC)CN(c1cc(N)c3cc(OC)c(OC)cc3n1)CC2 [Abanoquil, 2-(6,7-Dimethoxy-3,4-dihydro-1H-isoquinolin-2-yl)-6,7-dimethoxyquinolin-4-ylamine hemifumarate hydrate]
- Kb [1]: 2 nM
- pKB Rabbit Urethra Male [2]: 8.7

Structure (SMILES): COc1ccc(SC)c2c1C[C@@H]1[C@@H](C2)OCCN1C (relative stereo) [SDZ NVI-085, (±)-trans-4-Methyl-6-methoxy-9-thiomethoxy-3,4,4a, 5,10,10a-hexahydro-2H-naphtho[2,3-b][1,4]oxazine]
- Ki [3]: 316 nM

Structure (SMILES): CNCCc1ccc(O)c(NS(C)(=O)=O)c1 [SK&F 102652]
- activity at α2-adrenoceptors [4]: significant activity
- sensitivity of the contraction to prazosin, urethra [5]: highly sensitive to prazosin
- pEC50 Urethra [5]: 6.0

- Kb [1]: 39.8 nM
- pKB Rabbit Urethra Male [2]: 7.8
Structure (SMILES): COc1ccccc1N1CCN(CCCNc2c(C)c(=O)n(C)c(=O)n2C)CC1 [Compound 5-MU]

Structure (SMILES): CS(=O)(=O)Nc1c(O)ccc2c1CCCC2C1=NCCN1 (racemic) [Compound A-61603, (±)-N-[5-(4,5-Dihydro-1H-imidazol-2-yl)-2-hydroxy-5,6,7,8-tetra-hydronaphthalen-1-yl]methanesulfonamide]
- activity at α2-adrenoceptors [4]: significant activity
- Ki [3]: 50100 nM
- sensitivity of the contraction to prazosin, urethra [5]: highly sensitive to prazosin
- pEC50 Urethra [5]: 6.7
